From US20170159112A1, “AMPLIFIED ISOTHERMAL DETECTION OF POLYNUCLEOTIDES WITH ATP RELEASE” (priority 2015, published 2017) come the findings set out here.

Structures are written as SMILES.

The target of assay [1] is T1, Klenow fragment exo− polymerase (Escherichia coli, UniProt P00582, D355A/E357A).
T1 construct: Klenow fragment of DNA polymerase I 3′-exonuclease deficient variant, Kf exo^−; purchased New England BioLabs
It is filed as biochemical, E. coli. The note with it: Kf exo−; for Km / kcat: 37° C., single nucleotide incorporation, mean ± SD of three. An excerpt:
Next we performed experiments to quantify the efficiency of ARNs as DNA polymerase substrates. We used published analytical high-resolution gel-based methods to evaluate steady state kinetics of the four nucleotides as substrates during single nucleotide incorporation experiments, with Kf exo^−. We performed similar measurements with the natural dNTPs for comparison.
Steady-State DNA Polymerase Efficiency with Chimeric ATP-Releasing Nucleotides, with Kf Exo^−.
Steady-state kinetics measurements. Steady-state kinetics assays were performed following previously published procedures (Swanson et al. Biochemistry 2011, 50, 7666-7673). The 13mer primer (SEQ ID NO:13, 5′-[…]-3′) was end labeled with T4 polynucleotide kinase and [γ-^32P]-ATP following the manufacturer's protocol. The 20mer template ODNs (SEQ ID NO:14, 5′-[…]-3′, N=A, T, C, G) were annealed with 5′-^32P-labeled 13mer primer as described above. The annealed primer-template duplex (0.05 μM) was incubated with Klenow fragment exo^− polymerase at 37° C. for 5 min in the presence of individual dNTPs or chimeric ATP-linked nucleotides at varied concentrations.
The parameters were adjusted to result in extents of reaction of 20% or less to maintain initial velocity conditions. The reaction was terminated with an equal volume of formamide gel loading buffer (95% formamide, 20 mM EDTA, 0.05% xylene cyanol and bromophenol blue). Extension products were separated on 20% denaturing polyacrylamide gels containing 8 M urea. Gel band intensities of the primer and its extension products were quantified using a Typhoon 9410 Variable Mode Imager. Quantitative imaging of bands was carried out using Image J software to determine the fraction of primer extension. The velocity was plotted as a function of dNTP (or ARN) concentration and fit with the Michaelis-Menten equation to obtain the kinetic parameters, Vmax and Km. Reactions were performed three times and the mean (±standard deviation) of Vmax and Km are reported. The kcat values were calculated by dividing the Vmax with the concentration of polmerase used. The efficiency of nucleotide incorporation was calculated by the ratio Kcat/Km.

The target in assay [2] is T2, Kf (exo-) polymerase (Escherichia coli, UniProt P00582, D355A/E357A).
T2 construct: Klenow fragment of DNA polymerase I 3′-exonuclease deficient variant, Kf exo^−; purchased New England BioLabs
T2 sequence (P00582 324-928 D355A/E357A): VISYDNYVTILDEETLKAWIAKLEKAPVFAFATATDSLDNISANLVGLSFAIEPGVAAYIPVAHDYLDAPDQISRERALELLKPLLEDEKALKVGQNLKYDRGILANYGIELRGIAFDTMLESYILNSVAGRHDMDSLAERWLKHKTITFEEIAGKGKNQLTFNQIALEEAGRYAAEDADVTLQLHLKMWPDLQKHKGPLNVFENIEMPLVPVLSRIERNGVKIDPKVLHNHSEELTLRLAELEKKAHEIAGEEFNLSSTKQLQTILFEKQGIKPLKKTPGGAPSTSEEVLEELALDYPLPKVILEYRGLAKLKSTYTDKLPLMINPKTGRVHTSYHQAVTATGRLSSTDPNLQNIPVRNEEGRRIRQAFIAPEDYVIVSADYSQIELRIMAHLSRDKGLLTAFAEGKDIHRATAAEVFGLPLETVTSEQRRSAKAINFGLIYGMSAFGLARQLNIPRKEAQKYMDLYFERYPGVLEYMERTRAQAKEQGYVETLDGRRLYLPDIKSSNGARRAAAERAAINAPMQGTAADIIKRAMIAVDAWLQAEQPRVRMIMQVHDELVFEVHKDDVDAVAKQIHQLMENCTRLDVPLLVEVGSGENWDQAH
It counts as biochemical, E. coli. The note with it: for signal on the T20 template sequence (misincorporation of adenosine ribonucleotide moiety): 20 μM ARN, (T)20 template, Kf polymerase. As to the method: polymerase. (A) Primer-template duplexes with (N)20 ends used in this study. (B) Luminescence signals resulting from the incorporation of ATP-linked nucleotides by Kf (exo.) polymerase. The Kf (exo.) polymerase reaction was carried out with 20 μM chimeric nucleotides and 1 μM corresponding primer template at 37° C. for 1 h. 5 μL of polymerase reaction solution were used for the luciferase reaction. […] (C) Kf (exo.) polymerase selectivity with chimeric nucleotides. The reaction was carried out using the (T)20 template and each of the four ARNs under the same reaction conditions as FIG. 2B.
FIG. 5. Selectivity of chimeric nucleotides with Kf (exo-) polymerase. Each of the four chimeric ARNs was supplied with the polymerase and the annealed primer-template duplex immediately upstream of the sequence T20 (A), C20 (B), A20 (C), and G20 (D), respectively. The polymerase reaction contained: 20 μM chimeric nucleotide, 1 μM corresponding primer/template and 1 μL Kf (exo-) polymerase in manufacturer's polymerase reaction buffer. After 1 h incubation at 37° C., 5 μL reaction solutions were added to 95 μL luciferase reaction solution. The bioluminescence signal was recorded at 1 min intervals over 1 h by microplate fluorimeter.
Our initial studies were directed at testing whether these modified nucleotides would be active as substrates for a DNA polymerase. We carried out experiments of primer extension on short synthetic primer/template duplexes (FIG. 2; 1 μM) in the presence of a standard polymerase (Klenow fragment of DNA polymerase I 3′-exonuclease deficient variant, Kf exo^−). We supplied one ARN at a time (20 μM) to its complementary template for one hour; if synthesis were successful it should generate up to ˜20 μM ATP as by-product of the reaction. We removed a small aliquot of the polymerase reaction and measured luminescence from this aliquot containing ATP in a commercial luciferase+luciferin reaction buffer over one hour (FIG. 2B). […] In this latter case we hypothesize the presence of intra- or inter-molecular G quadruplex structures that may inhibit the polymerase, possibly explaining the diminishment of ATP signal. In all four cases, signals were considerably (13-33-fold) higher than background in which primer/template DNA was omitted.
Next we tested sequence selectivity of the chimeric nucleotides, evaluating sixteen combinations of ARNs with the four DNA sequences (FIG. 2C and FIG. 5). In all cases, the correct nucleotide/target sequence combinations yielded much higher signals than incorrect combinations, showing clear nucleotide/template base selectivity. […]
Primer extension and luciferase signaling with short linear test templates. […] The bioluminescence signal was recorded by microplate fluorometer (Fluoroskan Ascent, Thermal). […]

T1 sequence (P00582 324-928 D355A/E357A): as above

Take `Nc1ncnc2c1ncn2[C@H]1C[C@H](O)[C@@H](COP(=O)(O)OP(=O)(O)OP(=O)(O)O)O1` [dATP, reference compound]: in assay [1], the Km is 0.35 ± 0.05 µM and the kcat was determined as 0.143 ± 0.005 s⁻¹.
Consider `Nc1ncnc2c1ncn2[C@@H]1O[C@H](COP(=O)(O)OP(=O)(O)OP(=O)(O)OP(=O)(O)OC[C@H]2O[C@@H](n3cnc4c(N)ncnc43)C[C@@H]2O)[C@@H](O)[C@H]1O` [dAppppA, Deoxyadenosine-5′-tetraphosphate-P4-5′-Adenosine], for which, in assay [1], the “kcat/Km less than that of native congener dNTP” value stood at 5 fold, the Km was found to be 1.3 ± 0.4 µM and the kcat is 0.118 ± 0.0033 s⁻¹.
As for `Nc1ccn([C@H]2C[C@H](O)[C@@H](COP(=O)(O)OP(=O)(O)OP(=O)(O)O)O2)c(=O)n1` [dCTP, reference compound], in assay [1], the Km was found to be 0.07 ± 0.01 µM and the kcat was found to be 0.233 ± 0.0067 s⁻¹.
As to `Nc1ccn([C@H]2C[C@H](O)[C@@H](COP(=O)(O)OP(=O)(O)OP(=O)(O)OP(=O)(O)OC[C@H]3O[C@@H](n4cnc5c(N)ncnc54)[C@H](O)[C@@H]3O)O2)c(=O)n1` [dCppppA, Deoxycytidine-5′-tetraphosphate-P4-5′-Adenosine], in assay [1], the Km worked out at 3 ± 0.2 µM and the kcat came to 0.215 ± 0.0017 s⁻¹. Besides, the “signal on the T20 template sequence (misincorporation of adenosine ribonucleotide moiety)” value (“signal on the T20 template sequence” for short) in assay [2] is listed as “lack of enhanced signal”. Besides, the “background signal in selectivity experiments” value in assay [2] (sixteen combinations of ARNs with four DNA sequences) is “main background signal”.
Take `Nc1nc2c(ncn2[C@H]2C[C@H](O)[C@@H](COP(=O)(O)OP(=O)(O)OP(=O)(O)O)O2)c(=O)[nH]1` [dGTP, reference compound]: in assay [1], the Km amounted to 0.11 ± 0.01 µM and the kcat is 0.257 ± 0.0083 s⁻¹.
`Nc1nc2c(ncn2[C@H]2C[C@H](O)[C@@H](COP(=O)(O)OP(=O)(O)OP(=O)(O)OP(=O)(O)OC[C@H]3O[C@@H](n4cnc5c(N)ncnc54)[C@H](O)[C@@H]3O)O2)c(=O)[nH]1` [dGppppA, Deoxyguanosine-5′-tetraphosphate-P4-5′-Adenosine]: in assay [1], the “kcat/Km less than that of native congener dNTP” value is reported as 70 fold, the Km was found to be 3.5 ± 0.4 µM and the kcat was 0.118 ± 0.0083 s⁻¹. In addition, the “signal on the T20 template sequence” value in assay [2] is listed as “lack of enhanced signal”.
As to `Cc1cn([C@H]2C[C@H](O)[C@@H](COP(=O)(O)OP(=O)(O)OP(=O)(O)O)O2)c(=O)[nH]c1=O` [dTTP, reference compound], in assay [1], the Michaelis-Menten constant (Km) was determined as 0.24 ± 0.06 µM and the kcat was found to be 0.145 ± 0.005 s⁻¹.
For the molecule `Cc1cn([C@H]2C[C@H](O)[C@@H](COP(=O)(O)OP(=O)(O)OP(=O)(O)OP(=O)(O)OC[C@H]3O[C@@H](n4cnc5c(N)ncnc54)[C@H](O)[C@@H]3O)O2)c(=O)[nH]c1=O` [dTppppA, Thymidine-5′-tetraphosphate-P4-5′-Adenosine], in assay [1], the Km was 2.2 ± 0.6 µM and the kcat amounted to 0.0617 ± 0.0017 s⁻¹. Besides, the “signal on the T20 template sequence” value in assay [2] was “lack of enhanced signal”.
